Our source for the IC50 and Ki values is patent US11155557B2, “Pyrazolopyrimidine compounds and methods of use thereof” (Genentech, Inc., priority 2016, dated 2021).

Assay [1] concerns JAK1-dependent STAT6 phosphorylation in BEAS-2B human bronchial epithelial cells. Kind of assay: JAK1 pathway assay: IL-13 stimulated STAT6 phosphorylation in BEAS-2B cells. The note with it: Homo sapiens, BEAS-2B, BEAS-2B cells, IL-13 stimulation; read-out: IL-13 p-STAT6 BEAS-2B IC50. The assay is classed as cell-based. As for the experimental part:
JAK1 Pathway Assay in Cell Lines was Carried Out as Follows:
Inhibitor potency (EC50) was determined in cell-based assays designed to measure JAK1 dependent STAT phosphorylation.
In one assay approach, TF-1 human erythroleukemia cells obtained from the American Type Culture Collection (ATCC; Manassas, Va.) were used to measure JAK1-dependent STAT6 phosphorylation downstream of IL-13 stimulation. Prior to use in the assays, TF-1 cells were starved of GM-CSF overnight in OptiMEM medium (Life Technologies, Grand Island, N.Y.) supplemented with 0.5% charcoal/dextran stripped fetal bovine serum (FBS), 0.1 mM non-essential amino acids (NEAA), and 1 mM sodium pyruvate. The assays were run in 384-well plates in serum-free OptiMEM medium using 300,000 cells per well. In a second assay approach, BEAS-2B human bronchial epithelial cells obtained from ATCC were plated at 100,000 cells per well of a 96-well plate one day prior to the experiment. The BEAS-2B assay was run in complete growth medium (bronchial epithelial basal medium plus bulletkit; Lonza; Basel, Switzerland).
Test compounds were serially diluted 1:2 in DMSO and then diluted 1:50 in medium just before use. Diluted compounds were added to the cells, for a final DMSO concentration of 0.2%, and incubated for 30 min (for the TF-1 assay) or 1 hr (for the BEAS-2B assay) at 37° C. Then, cells were stimulated with human recombinant cytokine at their respective EC90 concentrations, as previously determined for each individual lot. Cells were stimulated with IL-13 (R&D Systems, Minneapolis, Minn.) for 15 min at 37° C. […] The resultant samples were frozen in the plates at −80° C. Compound mediated inhibition of STAT6 phosphorylation was measured in the cell lysates using MesoScale Discovery (MSD) technology (Gaithersburg, Md.).

Assay [2] deals with isolated recombinant JAK2 kinase domain (Homo sapiens (Human), UniProt O60674). Kind of assay: JAK2 enzyme assay (Caliper LabChip, Ki).
Chain of isolated recombinant JAK2 kinase domain (O60674 849-1124): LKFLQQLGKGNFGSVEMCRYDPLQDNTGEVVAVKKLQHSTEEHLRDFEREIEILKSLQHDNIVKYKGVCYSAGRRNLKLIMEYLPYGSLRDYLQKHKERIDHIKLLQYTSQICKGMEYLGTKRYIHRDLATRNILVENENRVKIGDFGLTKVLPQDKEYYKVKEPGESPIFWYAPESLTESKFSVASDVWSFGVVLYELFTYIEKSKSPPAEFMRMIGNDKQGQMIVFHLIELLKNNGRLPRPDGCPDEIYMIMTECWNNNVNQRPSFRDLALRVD
Assay [3] concerns the target isolated recombinant JAK1 kinase domain (Homo sapiens (Human), UniProt P23458). Kind of assay: JAK1 enzyme assay (Caliper LabChip, Ki). The assay is classed as biochemical. As for the experimental part:
The activity of the isolated recombinant JAK1 and JAK2 kinase domain was measured by monitoring phosphorylation of a peptide derived from JAK3 ([…] fluorescently labeled on the N-terminus with 5-carboxyfluorescein) using the Caliper LabChip R technology (Caliper Life Sciences, Hopkinton, Mass.).

Read-outs that look alike come from different tables or passages of the source.

Chain of isolated recombinant JAK1 kinase domain (P23458 875-1153): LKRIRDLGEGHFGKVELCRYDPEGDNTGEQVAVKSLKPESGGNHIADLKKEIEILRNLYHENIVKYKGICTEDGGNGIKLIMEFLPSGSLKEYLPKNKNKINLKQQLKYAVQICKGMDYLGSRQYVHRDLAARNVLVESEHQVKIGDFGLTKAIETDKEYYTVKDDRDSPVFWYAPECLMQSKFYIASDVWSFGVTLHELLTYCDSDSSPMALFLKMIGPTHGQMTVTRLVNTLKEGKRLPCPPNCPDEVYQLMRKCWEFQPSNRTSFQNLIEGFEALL

As a reminder, the IC50 is the point on the concentration scale where inhibition reaches its midpoint. As a reminder, the Ki is a dissociation constant, usually derived from enzyme kinetics or from competition with a known ligand. With `O=C(Nc1c[nH]nc1-c1cc2ccccc2cc1OC(F)F)c1cnn2cccnc12` [Example 1, N-(3-(3-(difluoromethoxy)naphthalen-2-yl)-1H-pyrazol-4-yl)pyrazolo[1,5-a]pyrimidine-3-carboxamide], in assay [1], the IC50 was 6 nM. Further, the inhibitory constant (Ki) was 0.14 nM in assay [2] (read-out: JAK2 Ki) and 0.31 nM in assay [3].

Turning to `O=C(Nc1cn(CC(=O)N2CCC(CN3CCOCC3)CC2)nc1-c1cc2ccccc2cc1OC(F)F)c1cnn2cccnc12` [Example 3, N-(3-(3-(difluoromethoxy)naphthalen-2-yl)-1-(2-(4-(morpholinomethyl)piperidin-1-yl)-2-oxoethyl)-1H-pyrazol-4-yl)pyrazolo[1,5-a]pyrimidine-3-carboxamide], in assay [1], the IC50 came to 8 nM. Besides, the Ki came to 0.97 nM in assay [2] (read-out: JAK2 Ki) and 0.38 nM in assay [3].

Consider `Cn1cc(NC(=O)c2cnn3cccnc23)c(-c2cc3ccccc3cc2OC(F)F)n1` [Example 4, N-(3-(3-(difluoromethoxy)naphthalen-2-yl)-1-methyl-1H-pyrazol-4-yl)pyrazolo[1,5-a]pyrimidine-3-carboxamide], for which, in assay [1], the IC50 worked out at 22 nM. In addition, the inhibition constant (Ki) in assay [2] (read-out: JAK2 Ki) came to 0.12 nM; in assay [3] it was 0.22 nM.

For `O=C(Nc1cn(CC(=O)N2CCCCC2)nc1-c1cc2c(cc1OC(F)F)NCCO2)c1cnn2cccnc12` [Example 6, N-[3-[6-(difluoromethoxy)-3,4-dihydro-2H-1,4-benzoxazin-7-yl]-1-[2-oxo-2-(piperidin-1-yl)ethyl]-1H-pyrazol-4-yl]pyrazolo[1,5-a]pyrimidine-3-carboxamide], the IC50 in assay [1] turned out to be 17 nM. In addition, the inhibition constant (Ki) turned out to be 0.31 nM in assay [2] (read-out: JAK2 Ki) and 0.2 nM in assay [3].

On to `COC(=O)c1cc2cc(OC(F)F)c(-c3n[nH]cc3NC(=O)c3cnn4cccnc34)cc2s1` [Example 7, Methyl 5-(difluoromethoxy)-6-(4-(pyrazolo[1,5-a]pyrimidine-3-carboxamido)-1H-pyrazol-3-yl)benzo[b]thiophene-2-carboxylate], for which, in assay [1], the IC50 stood at 6 nM. Besides, the Ki in assay [2] (read-out: JAK2 Ki) stood at 0.11 nM; in assay [3], 0.17 nM.

On to `COC(=O)Cn1cc(NC(=O)c2cnn3cccnc23)c(-c2cc3sccc3cc2OC(F)F)n1` [Example 8, Methyl 2-(3-(5-(difluoromethoxy)benzo[b]thiophen-6-yl)-4-(pyrazolo[1,5-a]pyrimidine-3-carboxamido)-1H-pyrazol-1-yl)acetate], for which the IC50 in assay [1] was determined as 10 nM. Also, the Ki in assay [2] (read-out: JAK2 Ki) was 0.29 nM; in assay [3], 0.32 nM.

Turning to `CC(C)(C)OC(=O)N1CCN(C(=O)c2cc3cc(OC(F)F)c(-c4n[nH]cc4NC(=O)c4cnn5cccnc45)cc3s2)CC1` [Example 9, tert-Butyl 4-(5-(difluoromethoxy)-6-(4-(pyrazolo[1,5-a]pyrimidine-3-carboxamido)-1H-pyrazol-3-yl)benzo[b]thiophene-2-carbonyl)piperazine-1-carboxylate], in assay [1], the IC50 is 153 nM. Besides, the figures for the Ki in assay [2] (read-out: JAK2 Ki) and in assay [3] were 2.85 nM and 3.99 nM, respectively.

Regarding `O=C(Nc1c[nH]nc1-c1cc2sc(C(=O)N3CCNCC3)cc2cc1OC(F)F)c1cnn2cccnc12` [Example 10, N-(3-(5-(difluoromethoxy)-2-(piperazine-1-carbonyl)benzo[b]thiophen-6-yl)-1H-pyrazol-4-yl)pyrazolo[1,5-a]pyrimidine-3-carboxamide], the IC50 in assay [1] was more than 1000 nM. Moreover, the Ki turned out to be 1.99 nM in assay [2] (read-out: JAK2 Ki) and 4.54 nM in assay [3].

With `O=C(Nc1c[nH]nc1-c1cc2c(cc1OC(F)F)NCCO2)c1cnn2cccnc12` [Example 11], in assay [1], the IC50 was 4 nM. In addition, the Ki in assay [2] (read-out: JAK2 Ki) was found to be 0.08 nM; in assay [3], 0.1 nM.

For `O=C(Nc1c[nH]nc1-c1cc2c(cc1OC(F)F)NCCS2)c1cnn2cccnc12` [Example 12, N-(3-(6-(difluoromethoxy)-3,4-dihydro-2H-benzo[b][1,4]thiazin-7-yl)-1H-pyrazol-4-yl)pyrazolo[1,5-a]pyrimidine-3-carboxamide], in assay [1], the IC50 amounted to 6 nM. The Ki in assay [2] (read-out: JAK2 Ki) was 0.06 nM; in assay [3] it was 0.09 nM.

For `NCCn1cc(NC(=O)c2cnn3cccnc23)c(-c2cc3c(cc2OC(F)F)NCCS3)n1` [Example 13, N-(1-(2-aminoethyl)-3-(6-(difluoromethoxy)-3,4-dihydro-2H-benzo[b][1,4]thiazin-7-yl)-1H-pyrazol-4-yl)pyrazolo[1,5-a]pyrimidine-3-carboxamide], the IC50 in assay [1] stood at 20 nM. The Ki in assay [2] (read-out: JAK2 Ki) came to 0.13 nM; in assay [3] it was 0.18 nM.

For the molecule `O=C1CSc2cc(-c3n[nH]cc3NC(=O)c3cnn4cccnc34)c(OC(F)F)cc2N1` [Example 14, N-[3-[6-(difluoromethoxy)-3-oxo-3,4-dihydro-2H-1,4-benzothiazin-7-yl]-1H-pyrazol-4-yl]pyrazolo[1,5-a]pyrimidine-3-carboxamide], the IC50 in assay [1] was found to be 27 nM. The Ki is 0.04 nM in assay [2] (read-out: JAK2 Ki) and 0.05 nM in assay [3].

As for `O=C(Nc1c[nH]nc1-c1cc2c(cc1OC(F)F)CCO2)c1cnn2cccnc12` [Example 16, N-(3-(5-(difluoromethoxy)-2,3-dihydrobenzofuran-6-yl)-1H-pyrazol-4-yl)pyrazolo[1,5-a]pyrimidine-3-carboxamide], the IC50 in assay [1] worked out at 5 nM. Also, the Ki in assay [2] (read-out: JAK2 Ki) was 0.09 nM; in assay [3], 0.21 nM.

Regarding `O=C(Nc1c[nH]nc1-c1cc2c(cc1OC(F)F)CCCO2)c1cnn2cccnc12` [Example 17, N-[3-[6-(difluoromethoxy)-3,4-dihydro-2H-1-benzopyran-7-yl]-H-pyrazol-4-yl]pyrazolo[1,5-a]pyrimidine-3-carboxamide], the IC50 in assay [1] was 14 nM. Also, the results for the Ki in assay [2] (read-out: JAK2 Ki) and in assay [3] were 0.14 nM and 0.32 nM, respectively.

As for `COC(=O)Cn1cc(NC(=O)c2cnn3cccnc23)c(-c2cc3sc(C#N)cc3cc2OC(F)F)n1` [Example 19, Methyl 2-(3-(2-cyano-5-(difluoromethoxy)benzo[b]thiophen-6-yl)-4-(pyrazolo[1,5-a]pyrimidine-3-carboxamido)-1H-pyrazol-1-yl)acetate], the IC50 in assay [1] was found to be 21 nM. For the same molecule, the Ki in assay [2] (read-out: JAK2 Ki) was 0.33 nM; in assay [3], 0.3 nM.

For `Cn1cc(NC(=O)c2cnn3cccnc23)c(-c2cc3sc(C(=O)N4CCN(C(=O)OC(C)(C)C)CC4)cc3cc2OC(F)F)n1` [Example 20, tert-Butyl 4-(5-(difluoromethoxy)-6-(1-methyl-4-(pyrazolo[1,5-a]pyrimidine-3-carboxamido)-1H-pyrazol-3-yl)benzo[b]thiophene-2-carbonyl)piperazine-1-carboxylate], in assay [1], the IC50 is 186 nM. Moreover, the Ki in assay [2] (read-out: JAK2 Ki) came out at 4.48 nM; in assay [3] it was 5.57 nM.

As to `O=C(Nc1c[nH]nc1-c1cc2cn[nH]c2cc1OC(F)F)c1cnn2cccnc12` [Example 21, N-(3-(6-(difluoromethoxy)-1H-indazol-5-yl)-1H-pyrazol-4-yl)pyrazolo[1,5-a]pyrimidine-3-carboxamide], in assay [1], the IC50 turned out to be 37 nM. For the same molecule, the Ki amounted to 0.05 nM in assay [2] and 0.07 nM in assay [3].

As for `COc1cc2cc(C)sc2cc1-c1n[nH]cc1NC(=O)c1cnn2cccnc12` [Example 22, N-(3-(5-methoxy-2-methylbenzo[b]thiophen-6-yl)-1H-pyrazol-4-yl)pyrazolo[1,5-a]pyrimidine-3-carboxamide], in assay [1], the IC50 was 6 nM. Also, the Ki worked out at 0.12 nM in assay [2] (read-out: JAK2 Ki) and 0.19 nM in assay [3].

Consider `COc1cc2sc(C#N)cc2cc1-c1n[nH]cc1NC(=O)c1cnn2cccnc12` [Example 24, N-(3-(2-cyano-6-methoxybenzo[b]thiophen-5-yl)-H-pyrazol-4-yl)pyrazolo[1,5-a]pyrimidine-3-carboxamide], for which, in assay [1], the IC50 stood at 14 nM. Further, the values for the Ki in assay [2] (read-out: JAK2 Ki) and in assay [3] were 0.27 nM and 0.41 nM, respectively.

`Cc1cc2cc(OC(F)F)c(-c3n[nH]cc3NC(=O)c3cnn4cccnc34)cc2s1` [Example 25, N-(3-(5-(difluoromethoxy)-2-methylbenzo[b]thiophen-6-yl)-1H-pyrazol-4-yl)pyrazolo[1,5-a]pyrimidine-3-carboxamide]: the IC50 in assay [1] turned out to be 5 nM. The Ki was 0.06 nM in assay [2] (read-out: JAK2 Ki) and 0.11 nM in assay [3].

Turning to `O=C(Nc1c[nH]nc1-c1cc2c(cc1OC(F)F)CCC2)c1cnn2cccnc12` [Example 26, N-[3-[6-(difluoromethoxy)indan-5-yl]-1H-pyrazol-4-yl]pyrazolo[1,5-a]pyrimidine-3-carboxamide], the IC50 in assay [1] stood at 8 nM. The Ki stood at 0.08 nM in assay [2] (read-out: JAK2 Ki) and 0.19 nM in assay [3].
